Experiment [1] concerns the target T1, FLT3 (Homo sapiens, UniProt P36888).
T1 sequence (P36888 27-993): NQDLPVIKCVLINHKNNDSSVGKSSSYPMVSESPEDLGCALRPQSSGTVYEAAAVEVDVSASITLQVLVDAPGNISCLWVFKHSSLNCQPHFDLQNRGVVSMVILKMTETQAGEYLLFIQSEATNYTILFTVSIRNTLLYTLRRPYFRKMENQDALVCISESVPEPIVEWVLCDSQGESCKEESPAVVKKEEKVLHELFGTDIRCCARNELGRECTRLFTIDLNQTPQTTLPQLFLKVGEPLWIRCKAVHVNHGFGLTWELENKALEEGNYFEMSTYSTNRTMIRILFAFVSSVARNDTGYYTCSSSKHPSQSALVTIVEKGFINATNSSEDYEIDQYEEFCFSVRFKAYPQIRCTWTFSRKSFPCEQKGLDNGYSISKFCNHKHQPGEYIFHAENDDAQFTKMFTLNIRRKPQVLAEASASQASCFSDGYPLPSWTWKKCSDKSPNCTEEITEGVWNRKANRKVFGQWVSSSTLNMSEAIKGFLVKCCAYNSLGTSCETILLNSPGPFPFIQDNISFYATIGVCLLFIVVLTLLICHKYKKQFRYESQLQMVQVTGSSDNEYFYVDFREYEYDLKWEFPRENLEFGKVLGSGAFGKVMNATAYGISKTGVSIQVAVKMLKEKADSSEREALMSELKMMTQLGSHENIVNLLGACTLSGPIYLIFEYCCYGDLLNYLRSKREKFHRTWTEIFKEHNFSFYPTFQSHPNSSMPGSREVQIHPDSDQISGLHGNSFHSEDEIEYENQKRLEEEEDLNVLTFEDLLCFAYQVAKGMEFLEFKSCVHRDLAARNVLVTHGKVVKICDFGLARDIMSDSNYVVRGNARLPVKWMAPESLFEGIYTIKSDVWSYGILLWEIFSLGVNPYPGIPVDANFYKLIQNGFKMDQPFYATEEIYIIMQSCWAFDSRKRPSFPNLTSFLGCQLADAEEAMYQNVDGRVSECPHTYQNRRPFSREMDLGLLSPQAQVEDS
Nature of the experiment: IMAP fluorescence polarization kinase assay, FLT3. In kind it is biochemical. To be noted: ATP 2.74 μM, enzyme 2.5 nM, 240 minutes, read-out: FLT3 inhibitory constant (Ki). How it is done:
(§1) Activities of compounds against each of TYRO3, AXL, and MERTK as well as against FLT3, were determined using an immobilized metal ion affinity-based fluorescence polarization (“IMAP”) assay. A fluorescently-labeled substrate peptide was phosphorylated in the kinase reaction, after which a binding solution containing large trivalent metal-based nanoparticles was added and the phosphorylated substrate binds to these beads. This reduces the rotational speed of the substrate which is then detected using fluorescence polarization as a read-out.
(§2) The substrates used for each enzyme are as follows: AXL: 5F1-KKKKEEIYFFFG-NH2(SEQ ID NO:1); FLT3: 5F1-KKKKEEIYFFF-NH2 (SEQ ID NO:2); MERTK: 5F1-EFPIYDFLPAKKK-NH2 (SEQ ID NO:3); and TYRO3: 5F1-EFPIYDFLPAKKK-NH2 (SEQ ID NO:4).
(§3) This assay was performed in a 384-well, polystyrene microplate in a final volume of 8 μl. Substrate (final concentration=400 nM), ATP (final concentrations=24.7μM for AXL; 2.74 μM for FLT3; 2.69 μM for MERTK; and 54.0 μM for TYRO3), compounds and enzyme (final concentrations=2.5 nM for AXL, FLT3 and TYRO3; 1.5 nM for MERTK) were pipetted in this order into the appropriate reaction buffer (AXL: 50 mM HEPES, pH 8.0, 1 mM DTT, 10 mM MgCl2, 0.01% BRU35, 0.01% Triton X-100; FLT3: 50 mM HEPES, pH 8.0, 1 mM DTT, 10 mM MgCl2, 0.01% Triton X-100, 0.01% NP40; MERTK/TYRO3: 50 mM HEPES, pH 8.0, 1 mM DTT, 10 mM MgCl2, 0.01% Triton X-100) and incubated at room temperature for varying times (AXL, FLT3 and MERTK: 240 minutes; TYRO3: 60 minutes). IMAP binding solution was then dispensed, the plate incubated for 60 minutes at room temperature and the fluorescence polarization measured. Data were analyzed using XLfit.
For orientation: Polarisation of emitted light reports the rotation of a fluorescent probe.

The target of experiment [2] is T2, MERTK (Homo sapiens, UniProt Q12866).
T2 sequence (Q12866 21-999): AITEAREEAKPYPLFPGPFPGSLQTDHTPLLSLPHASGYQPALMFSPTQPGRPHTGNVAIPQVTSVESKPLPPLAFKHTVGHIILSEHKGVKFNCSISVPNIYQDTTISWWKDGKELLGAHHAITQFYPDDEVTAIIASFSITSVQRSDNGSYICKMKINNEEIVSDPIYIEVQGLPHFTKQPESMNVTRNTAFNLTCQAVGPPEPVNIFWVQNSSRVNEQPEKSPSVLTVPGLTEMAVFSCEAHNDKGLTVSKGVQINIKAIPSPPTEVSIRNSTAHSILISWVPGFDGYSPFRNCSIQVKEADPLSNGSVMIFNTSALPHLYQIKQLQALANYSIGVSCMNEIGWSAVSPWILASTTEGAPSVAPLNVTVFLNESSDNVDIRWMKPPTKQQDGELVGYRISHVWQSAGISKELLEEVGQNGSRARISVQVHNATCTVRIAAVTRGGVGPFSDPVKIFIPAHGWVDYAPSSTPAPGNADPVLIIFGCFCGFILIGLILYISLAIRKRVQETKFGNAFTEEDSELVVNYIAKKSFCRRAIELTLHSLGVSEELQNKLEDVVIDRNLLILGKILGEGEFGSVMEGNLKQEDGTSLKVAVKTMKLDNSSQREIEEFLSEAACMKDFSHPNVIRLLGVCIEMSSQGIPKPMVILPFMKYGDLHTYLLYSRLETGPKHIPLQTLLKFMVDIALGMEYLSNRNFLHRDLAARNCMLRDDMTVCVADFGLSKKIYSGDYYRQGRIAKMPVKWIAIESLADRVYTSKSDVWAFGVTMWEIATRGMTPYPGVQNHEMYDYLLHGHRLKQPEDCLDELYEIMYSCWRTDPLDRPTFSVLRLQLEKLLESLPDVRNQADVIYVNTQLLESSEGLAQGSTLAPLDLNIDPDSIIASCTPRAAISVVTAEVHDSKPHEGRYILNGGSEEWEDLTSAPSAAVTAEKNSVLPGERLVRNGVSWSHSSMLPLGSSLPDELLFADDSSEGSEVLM
Briefly: IMAP fluorescence polarization kinase assay, MERTK. In kind it is biochemical. To be noted: ATP 2.69 μM, enzyme 1.5 nM, 240 minutes, read-out: MERTK inhibitory constant (Ki). How it is done:
as §1, §2, §3

Each structure is given as a SMILES string. Where a name gives a salt, the structure may show the parent alone.

As for `CCCc1cc2c(N[C@H]3CC[C@H](O)CC3)c(-c3ccc(CN4CCOCC4)cc3)cnc2[nH]1` [Compound 106, (1r,4r)-4-((5-(4-(morpholinomethyl)phenyl)-2-propyl-1H-pyrrolo[2,3-b]pyridin-4-yl)amino)cyclohexanol hydrochloride], the Ki in experiment [1] and in experiment [2] was 100 to 1000 nM each time.
In the case of `CC(O)c1cc2c(N[C@H]3CC[C@H](N)CC3)c(C(=O)Nc3ccc(F)cc3)cnc2[nH]1` (some centres unmarked) [Compound 148], the Ki in experiment [1] and in experiment [2] was 100 to 1000 nM in each case.
On to `CC(C)c1cc2c(N[C@H]3CC[C@H](N)CC3)c(C(=O)NCc3ccc(-n4ccnc4)cc3)cnc2[nH]1` [Compound 129], for which the Ki in experiment [1] and in experiment [2] was less than 100 nM in each case.
Turning to `CCCc1cc2c(N[C@H]3CC[C@H](N)CC3)c(C(=O)NC3CCN(c4ncccn4)CC3)cnc2[nH]1` [Compound 141], the inhibition constant (Ki) in experiment [1] is 100 to 1000 nM; in experiment [2] it was less than 100 nM.
For `N[C@H]1CC[C@H](Nc2c(C(=O)Nc3ccc(F)cc3)cnc3[nH]c(C4CCC4)cc23)CC1` [Compound 138, 4-(((1r,4r)-4-aminocyclohexyl)amino)-2-cyclobutyl-N-(4-fluorophenyl)-1H-pyrrolo[2,3-b]pyridine-5-carboxamide hydrochloride], in that order: less than 100 nM and less than 100 nM.
For `CCCc1cc2c(N[C@H]3CC[C@H](N)CC3)c(-c3ccc(N)cn3)cnc2[nH]1` [Compound 120], in that order: less than 100 nM and less than 100 nM.
The corresponding values for `CCCc1cc2c(N[C@H]3CC[C@H](N)CC3)c(-c3cc(NC(C)C)ncn3)cnc2[nH]1` [Compound 112] are less than 100 nM and less than 100 nM.

The Ki is the equilibrium dissociation constant of an inhibitor or competing ligand from its target.
